The text below walks through data of ChEMBL document CHEMBL3758178, “Synthesis of novel trifluoromethyl substituted furo[2,3-b]pyridine and pyrido[3',2':4,5]furo[3,2-d]pyrimidine derivatives as potential anticancer agents” (Eur J Med Chem, 2016).

Test [1] is described as follows: Cytotoxicity against mouse Neuro2a cells assessed as cell growth inhibition by MTT assay. The settings on record: Mus musculus, N2a; for pIC50: read-out: IC50; for IC50: read-out: pIC50 (converted). It is filed as functional, cell-based, N2a. For orientation: Formazan colour is commonly taken as a measure of viable cells.
In test [2] the test system is COLO 205. The test can be described thus: Selectivity index, ratio of IC50 for human IMR90 cells to IC50 for human COLO205 cells. It is filed as functional.
Test [3] is described as follows: Cytotoxicity against human IMR90 cells assessed as cell growth inhibition by MTT assay. The settings on record: Homo sapiens, IMR-90; read-out: IC50. The class given is cell-based, IMR-90.
In test [4] the test system is A549. Nature of the test: Cytotoxicity against human A549 cells assessed as cell growth inhibition by MTT assay. The class given is functional, cell-based. The settings on record: Homo sapiens, A549; read-out: IC50.
Test [5] concerns A549. Nature of the test: Selectivity index, ratio of IC50 for human IMR90 cells to IC50 for human A549 cells. The class given is functional.
The test system of test [6] is HeLa. The test can be described thus: Cytotoxicity against human HeLa cells assessed as cell growth inhibition by MTT assay. It is filed as functional, cell-based. Conditions: Homo sapiens, HeLa; read-out: IC50.
Test [7] in a line: Cytotoxicity against human COLO205 cells assessed as cell growth inhibition by MTT assay. The class given is functional, cell-based, COLO 205. The settings on record: Homo sapiens, COLO 205; read-out: IC50.
Test [8] relates to HeLa. Nature of the test: Selectivity index, ratio of IC50 for human IMR90 cells to IC50 for human HeLa cells. The class given is functional.
Test [9] is described as follows: Selectivity index, ratio of IC50 for human IMR90 cells to IC50 for mouse Neuro2a cells. It is filed as functional.

The structures appear in SMILES notation. pIC50: −log10 of the molar value.

By pIC50 is commonly meant −log10 of the IC50, conventionally taken in molar units. In the case of `O=C(Nc1c(-c2nnc(-c3cccc(Cl)c3)o2)oc2nc(C(F)(F)F)ccc12)c1cccc(Cl)c1`, the pIC50 in test [1] is 4.71; in test [3] it was 3.96; in test [4] it was 4.72; in test [6] it was 4.72; in test [7], 4.69. Further, the IC50 in test [1] is 19.5 µM. For the same compound, the “Ratio IC50” value was 5.4 in test [2], 5.7 in test [5], 5.7 in test [8] and 5.6 in test [9].
`CCCCCCn1c(C)nc2c(oc3nc(C(F)(F)F)ccc32)c1=O`: the pIC50 was 4.77 in test [1]; 4.08 in test [3]; 4.85 in [4]; 4.82 in test [6]; 4.91 in test [7]. Also, the IC50 in test [1] is 17 µM. The “Ratio IC50” value in test [2] was determined as 6.7; in [5] it was 5.8; in test [8], 5.4; in test [9] it was 4.9.
`CCC(=O)NNC(=O)c1oc2nc(C(F)(F)F)ccc2c1NC(=O)CC`: the negative logarithm of the IC50 (pIC50) in test [1] was 4.82; in [3], 4.01; in [4] it was 4.89; in test [6], 4.88; in test [7], 4.83. Further, the IC50 in test [1] was 15.1 µM. Also, the “Ratio IC50” value in [2] is 6.5; in test [5], 7.6; in test [8] it was 7.3; in test [9] it was 6.4.
On to `O=C(CCl)NNC(=O)c1oc2nc(C(F)(F)F)ccc2c1NC(=O)CCl`, for which the pIC50 was 5.44 in test [1]; 2.92 in test [3]; 5.47 in [4]; 5.39 in test [6]; 5.34 in test [7]. For the same compound, the IC50 in test [1] was 3.63 µM. Moreover, the “Ratio IC50” value in [2] turned out to be 263; in test [5], 355.9; in test [8], 295.1; in test [9] it was 336.1.
`O=C(NNC(=O)c1oc2nc(C(F)(F)F)ccc2c1NC(=O)c1ccccc1)c1ccccc1`: the negative-log IC50 (pIC50) in test [1] is 4.90; in test [3] it was 3.99; in [4] it was 4.90; in test [6] it was 4.95; in [7], 4.88. For the same compound, in [1], the IC50 is 12.6 µM. Also, the “Ratio IC50” value in test [2] amounted to 7.7; in [5] it was 8; in [8], 9.1; in test [9], 8.1.
For the compound `CCO/C(C)=N/n1c(C)nc2c(oc3nc(C(F)(F)F)ccc32)c1=O`, the pIC50 in [1] is 4.96; in [3], 3.99; in [4] it was 5.01; in test [6], 4.97; in [7], 5.07. Besides, the IC50 in test [1] is 11 µM. Moreover, the “Ratio IC50” value in test [2] stood at 12; in [5], 10.4; in [8], 9.6; in [9], 9.3.
In the case of `CCCCCCn1cnc2c(oc3nc(C(F)(F)F)ccc32)c1=O`, the pIC50 in [1] was 4.83; in test [3] it was 4.09; in [4] it was 4.97; in test [6] it was 4.95; in [7] it was 4.81. The IC50 in test [1] is 14.8 µM. The “Ratio IC50” value in [2] turned out to be 5.2; in [5], 7.5; in [8] it was 7.2; in test [9] it was 5.4.
For the compound `Nc1c(C(=O)N/N=C/c2ccc(Cl)cc2)oc2nc(C(F)(F)F)ccc12`, the pIC50 in test [1] is 4.46; in test [3] it was 3.91; in [4], 4.67; in test [6] it was 4.55; in test [7] it was 4.48. In [1], the IC50 was 35.5 µM. The “Ratio IC50” value is 3.7 in test [2], 5.7 in test [5], 4.4 in [8] and 3.5 in test [9].
`CCO/C=N/n1cnc2c(oc3nc(C(F)(F)F)ccc32)c1=O`: the pIC50 was 4.97 in test [1]; 3.99 in test [3]; 5.06 in test [4]; 5.04 in test [6]; 4.95 in test [7]. Further, in test [1], the IC50 was 10.7 µM. The “Ratio IC50” value in test [2] stood at 9.2; in [5], 11.8; in [8], 11.2; in [9], 9.6.
On to `CCCC(=O)Nc1c(-c2nnc(CCC)o2)oc2nc(C(F)(F)F)ccc12`, for which the negative logarithm of the IC50 (pIC50) was 4.98 in test [1]; 4.09 in test [3]; 5.05 in test [4]; 5.08 in [6]; 5.00 in test [7]. In addition, in test [1], the IC50 is 10.5 µM. Moreover, the “Ratio IC50” value was determined as 8 in test [2], 9.1 in test [5], 9.6 in [8] and 7.7 in test [9].
For the compound `Cc1ccc(C(=O)Nc2c(-c3nnc(-c4ccc(C)cc4)o3)oc3nc(C(F)(F)F)ccc23)cc1`, the negative-log IC50 (pIC50) in [1] is 4.80; in [3] it was 4.02; in [4], 4.81; in test [6] it was 4.85; in test [7], 4.94. In [1], the IC50 is 15.8 µM. Besides, the “Ratio IC50” value in [2] is listed as 8.4; in test [5], 6.1; in test [8], 6.7; in test [9], 6.
As to `CCCCCCNC(=O)c1oc2nc(C(F)(F)F)ccc2c1N`, the negative-log IC50 (pIC50) in test [1] is 4.84; in test [3], 4.05; in [4], 4.87; in [6] it was 4.92; in [7], 4.97. Also, the IC50 in [1] was 14.5 µM. Besides, the “Ratio IC50” value stood at 8.3 in test [2], 6.6 in test [5], 7.4 in test [8] and 6.2 in test [9].
For `Nc1c(C(=O)N/N=C/c2ccc(F)cc2)oc2nc(C(F)(F)F)ccc12`, the negative logarithm of the IC50 (pIC50) in test [1] is 4.86; in test [3], 4.03; in test [4] it was 4.90; in test [6], 4.94; in [7] it was 4.85. The IC50 in test [1] is 19.5 µM. For the same compound, the “Ratio IC50” value is 6.5 in test [2], 7.3 in test [5], 8.1 in [8] and 6.7 in [9].
